From PubChem BioAssay AID1645862 (Buhrlage Lab, Dana-Farber Cancer Institute and Novartis …, 2021)
The source made the active and inactive calls. The rule behind the calls is not given here.

Molecular target: Ubiquitin carboxyl-terminal hydrolase 8 (Homo sapiens) (UniProt P40818)
Experiment: Ubiquitin-specific protease 8 inhibitors, concentration-effect, biochemical, validation of initial actives (AID 1645862);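 note: potency reflects inhibition of USP8 cleavage of a ubiquitin rhodamine substrate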
Details: recombinant USP8 deubiquitinase activity assay

Ubiquitin carboxyl-terminal hydrolase 8 (Homo sapiens), sequence (P40818 whole entry, looked up): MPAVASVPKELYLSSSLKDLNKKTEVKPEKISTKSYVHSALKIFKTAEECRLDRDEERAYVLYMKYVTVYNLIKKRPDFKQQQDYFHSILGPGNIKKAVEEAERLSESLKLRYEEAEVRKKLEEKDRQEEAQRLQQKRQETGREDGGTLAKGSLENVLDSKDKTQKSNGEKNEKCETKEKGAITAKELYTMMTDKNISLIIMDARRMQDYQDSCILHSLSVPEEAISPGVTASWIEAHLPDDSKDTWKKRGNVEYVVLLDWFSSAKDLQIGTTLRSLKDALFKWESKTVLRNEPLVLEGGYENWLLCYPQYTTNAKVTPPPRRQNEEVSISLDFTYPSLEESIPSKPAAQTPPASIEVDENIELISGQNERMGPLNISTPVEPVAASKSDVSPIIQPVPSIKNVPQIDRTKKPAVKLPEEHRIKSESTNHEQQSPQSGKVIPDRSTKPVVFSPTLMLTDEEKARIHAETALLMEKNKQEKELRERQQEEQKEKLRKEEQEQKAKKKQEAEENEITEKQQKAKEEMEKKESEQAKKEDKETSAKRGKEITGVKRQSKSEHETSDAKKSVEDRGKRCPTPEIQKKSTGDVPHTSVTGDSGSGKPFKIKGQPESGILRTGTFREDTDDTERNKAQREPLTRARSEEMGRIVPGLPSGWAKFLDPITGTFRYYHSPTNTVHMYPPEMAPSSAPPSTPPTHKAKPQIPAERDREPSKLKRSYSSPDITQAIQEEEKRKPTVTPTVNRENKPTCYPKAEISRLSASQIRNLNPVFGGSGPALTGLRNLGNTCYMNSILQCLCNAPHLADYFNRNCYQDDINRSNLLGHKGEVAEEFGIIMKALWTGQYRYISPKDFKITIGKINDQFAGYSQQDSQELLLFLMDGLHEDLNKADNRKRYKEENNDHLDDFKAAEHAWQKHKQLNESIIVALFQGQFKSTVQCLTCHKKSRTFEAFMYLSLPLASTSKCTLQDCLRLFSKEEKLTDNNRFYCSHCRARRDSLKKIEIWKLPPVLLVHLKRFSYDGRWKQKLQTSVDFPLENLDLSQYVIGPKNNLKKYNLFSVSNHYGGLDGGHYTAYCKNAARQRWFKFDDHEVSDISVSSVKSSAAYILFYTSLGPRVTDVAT

| Compound | IC50 |
| --- | --- |
| CC(C)=CCOC(C)(C)[C@H]1OC2CC[C@@]3(C)C(CCC4Cc5c([nH]c6ccccc56)[C@@]43C)C23OC3[C@@H]1O (stereo partly drawn) | 35 µM |
| Nc1c(C(=O)NCc2ccc3c(c2)OCO3)nnn1Cc1ccc(Br)cc1F | > 40 µM (inactive) |
| O=C1CC(c2nc3ccccc3n2CCOc2ccc(Cl)cc2)CN1c1ccccc1 (stereo not drawn) | > 40 µM (inactive) |
| Cn1cc(C(=O)NCC2COc3ccccc3O2)c(=O)c2cc(S(=O)(=O)N3CCCCC3)ccc21 (stereo not drawn) | > 40 µM (inactive) |
| O=C(NC1CCCC1)c1ccc(Cn2c(=O)c3ccccc3n(Cc3cc(=O)n4ccccc4n3)c2=O)cc1 | > 40 µM (inactive) |
| Cc1cc(NS(=O)(=O)c2ccc(NC(=O)COc3ccc(Cl)cc3)cc2)no1 | > 40 µM (inactive) |
| COC(=O)c1ccc2c(=O)n(-c3ccc(C)c(F)c3)c(N3CCC(C(N)=O)CC3)nc2c1 | > 40 µM (inactive) |
| Cc1ncc(CO)c2c1Oc1nc(-c3cccc(Cl)c3)nc(SCC(=O)N3CCCCC3)c1C2 | > 40 µM (inactive) |
| Cc1cccc(Cl)c1NC(=O)Nc1ccc(NC(=O)c2ccccc2O)cc1 | > 40 µM (inactive) |
| CN(C)c1ccc(S(=O)(=O)N2CCCCC2)cc1NC(=O)COc1ccccc1 | > 40 µM (inactive) |
| O=C(Cn1c(=O)c2sccc2n(CC(=O)OCc2ccccc2)c1=O)NCc1ccccc1Cl | > 40 µM (inactive) |
| Cc1cc(C)c(C#N)c(N2CCN(CCOc3ccc(Cl)cc3)CC2)n1 | > 40 µM (inactive) |
| O=C(CSc1nnc2n(-c3ccccc3)c(=O)c3ccccc3n12)c1ccc(F)cc1 | > 40 µM (inactive) |
| Cn1c(=O)c2nc(-c3ccc(Cl)cc3)nnc2n(C)c1=O | 0.734 µM |
| COc1ccc(-c2onc(C)c2C)cc1S(=O)(=O)NCc1ccc(F)cc1 | > 40 µM (inactive) |
| Cc1ccc(-c2cc(=O)n(CC(=O)Nc3ccc(C(C)C)cc3)cn2)cc1 | > 40 µM (inactive) |
| O=S1(=O)CCN(CC2CCCO2)c2c(Oc3ccccc3)nc(F)c(Cl)c21 (stereo not drawn) | > 40 µM (inactive) |
| O=c1[nH]c(C2CCN(S(=O)(=O)c3ccc(S(=O)(=O)NC4CCCCC4)cc3)CC2)nc2c1nnn2Cc1ccc(F)cc1 | > 40 µM (inactive) |
| COc1cc(Cl)c(NC(=O)c2cc(-c3ccccn3)n[nH]2)c(OC)c1 | > 40 µM (inactive) |
| COc1ccc(-c2noc(C3(c4ccc(F)cc4)CCOCC3)n2)cc1 | > 40 µM (inactive) |
| O=C(Nc1cccc([N+](=O)[O-])c1)Nc1ccc2snnc2c1 | 14.8 µM |
| Cc1ccc(Nc2nc(NCC(=O)Nc3cc(C)ccc3C)nc(Nc3ccc(C)cc3)n2)cc1 | > 40 µM (inactive) |

| Compound | IC50 |
| --- | --- |
| COc1cc(/C=C/C(=O)OCC(=O)Nc2ccc([N+](=O)[O-])cc2OC)ccc1O | 26.3 µM |
| COc1cc(-c2ccccc2)c(O)c(O)c1-c1ccccc1 | 16 µM |
| Cc1cc(OCC(=O)Nc2ccc3c(c2)NC(=O)CO3)ccc1Cl | > 40 µM (inactive) |
| Cc1[nH]c2ccc(F)cc2c(=O)c1CN1CCCCC1 | > 40 µM (inactive) |
| COC(=O)c1ccc2c(=O)n(CCCCCC(=O)NCCc3ccccc3Cl)c(=O)[nH]c2c1 | > 40 µM (inactive) |
| Cc1ccc(S(=O)(=O)Nc2cccc(Cl)c2)cc1NC(=O)CCC(=O)c1ccc(Cl)cc1 | > 40 µM (inactive) |
| COc1ccc(COc2ccc3c(C)c(CC(=O)N4CC[C@@]5(O)CCCC[C@H]5C4)c(=O)oc3c2)cc1 | > 40 µM (inactive) |
| CCN(Cc1ccccc1)C(=O)Cn1ccc2ccn(C)c2c1=O | > 40 µM (inactive) |
| Cn1c(=O)n(CCc2ccccc2)c(=O)c2c1nc1n2CCN1Cc1ccccc1 | > 40 µM (inactive) |
| O=C(CCCCn1c(=O)c2ccccc2n(CC(=O)Nc2ccc3c(c2)OCCO3)c1=O)NCc1ccco1 | > 40 µM (inactive) |
| CC(C)CC(NC(=O)c1ccc(Cl)cc1Cl)c1nc2ccccc2[nH]1 (stereo not drawn) | > 40 µM (inactive) |
| Cc1c(C(=O)Nc2ccc(Oc3ccccc3)cc2)nnn1-c1cccc(Cl)c1 | > 40 µM (inactive) |
| O=C(Nc1ccc(NC(=O)c2ccccc2O)cc1)Nc1ccc(OCc2ccccc2)cc1 | > 40 µM (inactive) |
| O=C(CSc1oc(-c2ccc(F)cc2)nc1S(=O)(=O)c1ccc(F)cc1)Nc1ccc(F)cc1 | > 40 µM (inactive) |
| N#Cc1cccc(NC(=O)Cn2cccc2-c2nc(-c3ccccc3)no2)c1 | > 40 µM (inactive) |
| CC(C)(C)C(=O)[C@@H]1[C@@H](C(=O)c2ccc3c(c2)OCO3)[C@@]2(C(=O)Nc3ccccc32)[C@H]2c3ccccc3C=CN12 | 7.11 µM |
| O=C(c1cc(S(=O)(=O)Nc2ccc(Cl)cc2)ccc1Cl)N1CCCc2ccccc21 | > 40 µM (inactive) |
| CCCCOc1ccc(-c2cc3n(c(=N)c2C#N)CCc2cc4c(cc2-3)OCCCO4)cc1OC | > 40 µM (inactive) |
| CSc1ccc(CNC(=O)Cn2nc(C)c3c(C)n(-c4ccccc4)nc3c2=O)cc1 | 19.5 µM |
| COc1cccc(C(=O)Nc2ccc(SC(C)C(=O)Nc3ccc(C(N)=O)cc3)cc2)c1 (stereo not drawn) | > 40 µM (inactive) |
| COc1cccc(NC(=O)CCc2nnc3n(CCCOC(C)C)c(=O)c4ccccc4n23)c1 | > 40 µM (inactive) |
| O=C(Cn1c(=O)n(CC2CCC(C(=O)NCCc3ccccc3)CC2)c(=O)c2ccccc21)NCc1ccco1 (stereo not drawn) | > 40 µM (inactive) |

| Compound | IC50 |
| --- | --- |
| Cc1c(C(=O)NCc2cccc(Br)c2)oc2c1-c1[nH]ncc1CC2 | > 40 µM (inactive) |
| COC(=O)c1ccc(C2c3[nH]c4ccccc4c3C[C@@H]3C(=O)N(c4ccc5c(c4)OCCO5)C(=O)N23)cc1 (stereo partly drawn) | > 40 µM (inactive) |
| O=C(Cn1c(COc2ccccc2)nc2ccccc21)Nc1cc(Cl)ccc1Cl | > 40 µM (inactive) |
| CN(CC(=O)Nc1ccc(Cl)cc1)c1cnn(-c2nc3ccccc3[nH]2)c(=O)c1Cl | > 40 µM (inactive) |
| COc1ccc(NC(=O)Cn2cc(C(=O)c3ccc(Cl)cc3)c(=O)c3cc(F)ccc32)cc1 | > 40 µM (inactive) |
| CC(C)=CCc1c2c(c3occ(-c4ccc(O)c(O)c4)c(=O)c3c1O)C=CC(C)(C)O2 | 16 µM |
| CCOC(=O)N1CCC(NC(=O)c2cc(C(=O)Nc3ccc(S(=O)(=O)N4CCCCC4)cc3)ccc2CO)CC1 | > 40 µM (inactive) |
| CCCCCCCC1OC(=O)Cc2cc(O)c(O)c(O)c21 (stereo not drawn) | 8.62 µM |
| CCn1c(SCC(=O)c2c(N)n(CC(C)C)c(=O)n(C)c2=O)nnc1-c1ccccc1 | > 40 µM (inactive) |
| CC(Nc1nnc(Cc2ccccc2)c(=O)[nH]1)c1ccccc1 (stereo not drawn) | > 40 µM (inactive) |
| O=C(NCc1ccc(F)cc1)c1cccc(Nc2nc3ccccc3n3cnnc23)c1 | > 40 µM (inactive) |
| CCC(C(=O)C(C)C(O)C(C)CCc1ccc(C)c(O)c1C(=O)O)C1OC(CC)(C2CCC(O)(CC)C(C)O2)CC1C (stereo not drawn) | > 40 µM (inactive) |
| NS(=O)(=O)c1ccc(CNC(=O)c2ccc(Cl)c(S(=O)(=O)Nc3cc(Cl)ccc3Cl)c2)cc1 | > 40 µM (inactive) |
| CCC(=O)Nc1nc2cc(NC(=O)Nc3ccc(C)cc3)ccc2s1 | > 40 µM (inactive) |
| O=C(Cn1c(=O)n(CCC(=O)N2CCc3ccccc3C2)c(=O)c2ccccc21)NCc1ccccc1Cl | > 40 µM (inactive) |
| Cc1nc(N2CCCC2)ncc1-c1cc(=O)[nH]c(Nc2ccc(Cl)cc2Cl)n1 | > 40 µM (inactive) |
| COc1ccc(NC(=O)CC(=O)c2ccc([N+](=O)[O-])cc2)cc1S(=O)(=O)Nc1ccc(Br)cc1 | > 40 µM (inactive) |
| Cc1cccc2nc(CSc3nc4ccc([N+](=O)[O-])cc4[nH]3)cn12 | > 40 µM (inactive) |
| Cc1ccc(Cl)cc1NC(=O)c1cc(-c2ccccn2)n[nH]1 | > 40 µM (inactive) |
| Cc1ccc(N2CC(c3nc4ccccc4n3CCOc3cccc(C)c3)CC2=O)cc1 (stereo not drawn) | > 40 µM (inactive) |
| COc1ccccc1NC(=O)c1nc(-c2cn(-c3cccc(F)c3)nn2)no1 | > 40 µM (inactive) |
| O=C(CNC(=O)OCc1ccccc1)Nc1ccc(Br)cc1C(=O)c1ccccc1Cl | > 40 µM (inactive) |

| Compound | IC50 |
| --- | --- |
| O=C(NCc1ccc2c(c1)OCO2)c1cc2c(s1)-c1ccccc1OC2 | > 40 µM (inactive) |
| N#Cc1cccc(NC(=O)COC(=O)c2n[nH]c3ccccc23)c1 | > 40 µM (inactive) |
| CSc1ccccc1C(=O)Nc1sc2c(c1C(N)=O)CCC(C)C2 (stereo not drawn) | > 40 µM (inactive) |
| O=C(CCCCCn1c(=O)c2sccc2n(CC(=O)c2ccc(F)cc2)c1=O)NCc1ccccc1Cl | > 40 µM (inactive) |
| Cc1cc(=O)n(C)c2c(O)c3c(cc12)c(C)cc(=O)n3C | 0.256 µM |
| O=C(NCc1ccc2c(c1)OCO2)c1cc2c(s1)CCC2 | 16.1 µM |
| O=C(CCc1nnc2n(Cc3ccccc3)c(=O)c3ccccc3n12)NCc1ccc2c(c1)OCO2 | > 40 µM (inactive) |
| Cc1cc(C)c(NC(=O)Cn2c(SCc3cccc(F)c3)nc3cccnc32)c(C)c1 | > 40 µM (inactive) |
| COc1ccc(Oc2cc3n(c(=O)n2)CCc2cc(OC)c(OC)cc2-3)cc1 | > 40 µM (inactive) |
| COc1cc2cc3c(c(O)c2c(O)c1-c1c(OC)cc2cc4c(c(O)c2c1O)C(=O)OC1CC(C)OC41)C(=O)OC1CC(C)OC31 (stereo not drawn) | 0.972 µM |
| O=C(Cn1c(=O)n(Cc2ccc(C(=O)NCc3ccco3)cc2)c(=O)c2ccccc21)Nc1ccc2c(c1)OCCO2 | > 40 µM (inactive) |
| O=C(NCc1ccco1)c1ccc(Cn2c(=O)c3sccc3n(Cc3cc(=O)n4ccccc4n3)c2=O)cc1 | > 40 µM (inactive) |
| Cc1ccc(C(=O)NC(C)c2ccccc2)cc1NC(=O)c1nsc2ccccc12 (stereo not drawn) | > 40 µM (inactive) |
| O=C(Nc1nc2c(ccc3ccccc32)s1)c1cccc(Br)c1 | > 40 µM (inactive) |
| Cc1cccc(NC(=O)Nc2ccccc2OCc2cc(=O)n3cccc(C)c3n2)c1 | > 40 µM (inactive) |
| COc1cc(OC)c(NC(=O)c2cc(-c3ccccn3)n[nH]2)cc1Cl | > 40 µM (inactive) |
| CCc1nnc(-c2ccc3ccn(CC(=O)N4CCN(c5ccccn5)CC4)c3c2)o1 | > 40 µM (inactive) |
| COc1ccc(OC)c(NC(=O)c2cc(Cl)ccc2OC)c1 | > 40 µM (inactive) |
| COCCCN1CCS(=O)(=O)c2c(Cl)c(F)nc(Oc3ccccc3F)c21 | > 40 µM (inactive) |
| Cc1nc(N2CCN(c3ccc(Cl)cc3)CC2)c2oc3ccccc3c2n1 | > 40 µM (inactive) |
| CCCCCCCCC/C=C/C(=O)CCc1c(O)c(C=O)c2c(c1O)C(=O)OC2O (stereo not drawn) | 0.514 µM |
| Cc1ccc(Cn2cc(C(=O)Nc3ccccc3C(N)=O)ccc2=O)cc1 | 7.34 µM |
